In patent US8952024B2, “Herbicidal pyrimidone derivatives” (E I du Pont de Nemours and Company, priority 2009, dated 2015):

Tests used:
Format in all cases: in vivo
[1] = system: barnyardgrass (Echinochloa crus-galli); assay: Test B flooded paddy test; conditions: for Plant response rating, Barnyardgrass: Flood (flooded paddy test), 13 to 15 days
Summary of the method: (§1)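 Plants were grown to the 2-leaf stage, then pots were flooded to 3 cm above the soil and compounds were applied directly into the paddy water. That depth was held throughout. After 13 to 15 days in a greenhouse, injury was visually rated against controls on a 0–100 scale.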

[2] = system: umbrella sedge (Cyperus difformis); assay: Test B flooded paddy test; conditions: for Plant response rating, Sedge, Umbrella: Flood (flooded paddy test), 13 to 15 days
Summary of the method: as §1

[3] = system: goosegrass (Eleusine indica); assay: Test B pre-/postemergence plant response; conditions: for Plant response rating, Goosegrass: Postemergence
Summary of the method: (§2)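 Pre-em in loam/sand; post-em at 1–4 leaf (2–18 cm) in peat mix. Solvent + surfactant formulation. Greenhouse 13–15 d; visual % control vs untreated, 0–100.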

[4] = system: green foxtail (Setaria viridis); assay: Test B pre-/postemergence plant response; conditions: for Plant response rating, Foxtail, Green: Postemergence
Summary of the method: as §2

[5] = system: yellow nutsedge (Cyperus esculentus); assay: Test B pre-/postemergence plant response; conditions: for Plant response rating, Nutsedge, Yellow: Postemergence
Summary of the method: as §2

[6] = system: cocklebur (Xanthium strumarium); assay: Test B pre-/postemergence plant response; conditions: for Plant response rating, Cocklebur: Postemergence
Summary of the method: as §2

[7] = system: morningglory (Ipomoea coccinea); assay: Test B pre-/postemergence plant response; conditions: for Plant response rating, Morningglory: Postemergence
Summary of the method: as §2

wild oat (Avena fatua) = assay: Test B pre-/postemergence plant response; conditions: for Plant response rating, Oat, Wild: Postemergence
Summary of the method: as §2

[8] = system: wheat (Triticum aestivum); assay: Test B pre-/postemergence plant response; conditions: for Plant response rating, Wheat: Postemergence
Summary of the method: as §2

[9] = system: large crabgrass (Digitaria sanguinalis); assay: Test B pre-/postemergence plant response; conditions: for Plant response rating, Crabgrass, Large: Postemergence
Summary of the method: as §2

[10] = system: lambsquarters (Chenopodium album); assay: Test B pre-/postemergence plant response; conditions: for Plant response rating, Lambsquarters: Postemergence
Summary of the method: as §2

[11] = system: bermudagrass (Cynodon dactylon); assay: Test B pre-/postemergence plant response; conditions: for Plant response rating, Bermudagrass: Postemergence
Summary of the method: as §2

[12] = 250 g ai/ha, flooded paddy test, visual rating on 0 to 100 scale (0 no effect, 100 complete control) after 13 to 15 days
[13] = 62 g ai/ha, scale of 0 to 100 where 0 is no effect and 100 is complete control
[14] = 125 g ai/ha, scale 0 to 100, 0 is no effect, 100 is complete control
[15] = Flood, 31 g ai/ha, scale 0 to 100 (0 no effect, 100 complete control)
[16] = 62 g ai/ha, postemergence, 0 is no effect, 100 is complete control, 13 to 15 days
[17] = 31 g ai/ha, 0 to 100 scale (0 no effect, 100 complete control)
[18] = 125 g ai/ha, scale 0 to 100 (0 no effect, 100 complete control)
[19] = 250 g ai/ha, scale 0 to 100 (0 no effect, 100 complete control), 13 to 15 days

## CCCn1c(-c2cc(F)cc(F)c2)ncc(C(=O)C2=C(O)CCCC2=O)c1=O [Compound 152]
[1]; [12]
  Plant response rating, Flood, Barnyardgrass: 75
[1]; [13]
  Plant response rating, Barnyardgrass: 25
[1]; [14]
  Plant response rating, Barnyardgrass: 50
[1]; [15]
  Barnyardgrass plant response rating: 15
[2]; [12]
  Plant response rating, Flood, Sedge, Umbrella: 100
[2]; [13]
  Plant response rating, Sedge, Umbrella: 0
[2]; [14]
  Plant response rating, Sedge, Umbrella: 85
[2]; [15]
  Sedge, Umbrella plant response rating: 0
[3]; [16]
  Goosegrass plant response rating (0 to 100 scale): 85
[3]; [17]
  Plant response rating, Goosegrass: 80
[3]; [18]
  Plant response rating, Goosegrass: 95
[3]; [19]
  Plant response rating, Goosegrass: 98
[4]; [16]
  Foxtail, Green plant response rating (0 to 100 scale): 75
[4]; [17]
  Plant response rating, Foxtail, Green: 75
[4]; [18]
  Plant response rating, Foxtail, Green: 98
[4]; [19]
  Plant response rating, Foxtail, Green: 100
[5]; [16]
  Nutsedge, Yellow plant response rating (0 to 100 scale): 75
[5]; [17]
  Plant response rating, Nutsedge, Yellow: 65
[5]; [18]
  Plant response rating, Nutsedge, Yellow: 80
[5]; [19]
  Plant response rating, Nutsedge, Yellow: 80
[6]; [16]
  Cocklebur plant response rating (0 to 100 scale): 80
[6]; [17]
  Plant response rating, Cocklebur: 70
[6]; [18]
  Plant response rating, Cocklebur: 98
[6]; [19]
  Plant response rating, Cocklebur: 100
[7]; [16]
  Morningglory plant response rating (0 to 100 scale): 75
[7]; [17]
  Plant response rating, Morningglory: 45
[7]; [18]
  Plant response rating, Morningglory: 75
[7]; [19]
  Plant response rating, Morningglory: 95
Wild oat (Avena fatua); [16]
  Oat, Wild plant response rating (0 to 100 scale): 45
Wild oat (Avena fatua); [17]
  Plant response rating, Oat, Wild: 30
Wild oat (Avena fatua); [18]
  Plant response rating, Oat, Wild: 80
Wild oat (Avena fatua); [19]
  Plant response rating, Oat, Wild: 85
[8]; [16]
  Wheat plant response rating (0 to 100 scale): 50
[8]; [17]
  Plant response rating, Wheat: 35
[8]; [18]
  Plant response rating, Wheat: 85
[8]; [19]
  Plant response rating, Wheat: 90
[9]; [16]
  Crabgrass, Large plant response rating (0 to 100 scale): 85
[9]; [17]
  Plant response rating, Crabgrass, Large: 75
[9]; [18]
  Plant response rating, Crabgrass, Large: 95
[9]; [19]
  Plant response rating, Crabgrass, Large: 95
[10]; [16]
  Lambsquarters plant response rating (0 to 100 scale): 95
[10]; [17]
  Plant response rating, Lambsquarters: 85
[10]; [18]
  Plant response rating, Lambsquarters: 98
[10]; [19]
  Plant response rating, Lambsquarters: 100
[11]; [16]
  Bermudagrass plant response rating (0 to 100 scale): 95
[11]; [17]
  Plant response rating, Bermudagrass: 95
[11]; [18]
  Plant response rating, Bermudagrass: 98
[11]; [19]
  Plant response rating, Bermudagrass: 98
